Laboratory results as given in patent US12613249B2 (THE ROYAL INSTITUTION FOR THE ADVANCEMENT OF LEARNING / …, priority 2019, dated 2026).
Square brackets hold non-standard residues; d marks the D form. Peptide text beside a SMILES is read from it.

Key:
metalloproteases [1] = assay: Metalloprotease inhibition in BACE1-overexpressing SH-SY5Y cells, 4-plex MSD; type: cell-based, human; settings: supernatant
From the text: (§1) Using the ELISA Conversion Kit from Meso Scale Discovery (MSD, USA), an electrochemiluminescence-based assay was developed (neo-epitope specific Aβ34 and the sulfo-tagged 6E10 (binds to the N-terminus of human Aβ) or the sulfo-tagged 4G8 for murine samples (binds to the mid domain of Aβ)). High-bind or custom-printed 4-plex plates (using the mab34, 4G8 (Biolegend) for pan-Aβ assay, G2−10 for 1-plex Aβ40 assay, and MSD's validated mouse monoclonal anti-Aβ38, anti-Aβ40, as well as anti-Aβ42 antibodies, see MSD Aβ peptide V-PLEX) were blocked (MSD 5% Blocker A in PBS) for 1 h at 22° C. and washed three times with PBS-T for 1 min. at 22° C., loaded with SULFO-TAG™ 6E10 or 4G8 detection antibody (diluted to 1× in MSD Diluent 100) and sample or peptide calibrator (in MSD Diluent 35 or cell culture medium), and incubated for 16 h at 4° C. with shaking at 600 rpm. After three washing steps with PBS-T for 1 min. at 22° C., 150 μL 2×MSD read buffer were added per well. All plates were read using a MSD QuickPlex SQ 120 Imager and data analyzed using MSD Workbench® software. Standard curves were fitted using a non-linear four-parameter logistic fit with 1/y^2 weighting. The equation is: […]

metalloproteases [2] = assay: Metalloprotease inhibition in APP-overexpressing SH-SY5Y cells, 4-plex MSD; type: cell-based, human; settings: supernatant
From the text: as §1

[3] = Ex-vivo stability in mouse liver S9-fraction, MALDI-TOF MS; type: in vitro ADME, C57BL/6 mice; settings: mouse liver S-9 fraction, after 24 h
Experimental: (§2) The stability of D-AIP in mouse plasma, blood and liver S-9 fraction was investigated to ascertain the metabolic resistance towards proteases and enzymatic activities in these matrices. Whole mouse blood obtained from healthy C57BL/6 male and female mice (6 mice in total) were collected in lithium heparin containing tubes, pooled and stored at 4° C. prior to its use. A fraction of the pooled blood was immediately centrifuged at 1500×g for 10 min at 4° C. to obtain the plasma. The whole blood and plasma samples were spiked with PBS (as control) or AIP (L-AIP, D-AIP or sD-AIP respectively) to make a final concentration of 1 ug/mL and incubated at 37° C. Initial samples were withdrawn to represent t=0 prior to incubation and others were withdrawn 1, 3 and 24 h respectively. Fresh mouse liver also obtained from C57BL/6 male and female mice were pooled, homogenized in 0.15 M Potassium chloride (KCl) and centrifuged at 9000×g. The supernatant represents liver homogenate (S-9) fraction which was mixed with other buffers to formulate the liver S-9 mix as previously described (Kolrep et al., 2017, Toxicol In Vitro, 42:161-170). Liver S-9 mix were spiked with AIP to make a final concentration of 1 μg/mL (L-AIP, D-AIP or sD-AIP respectively) and incubated at 37° C. Just after the addition of NADPH, 100 μL aliquot which represents t=0 samples were withdrawn and others were sampled accordingly at predetermined time points. 400 μL of ice cold MeOH was added to the spiked plasma, blood or liver S-9 fraction respectively, to precipitate the microsomal protein. The samples were then vigorously mixed for 30 s to facilitate extraction and centrifuged for 10 minutes at 13000 rpm, the supernatant was subjected to sample clean up by C18 ZipTip (EMD Millipore Corporation), the eluates were spotted with CHCA matrix on the ground steel MALDI-TOF target and analyzed with MALDI-TOF MS. Applying the t=0 peak area as 100% the intensities of the other time points were compared relatively for interpretation. […]

[4] = Ex-vivo stability in mouse whole blood, MALDI-TOF MS; type: in vitro ADME; settings: both sexes, C57BL/6, 24 h incubation, read-out: decrease of signal
Experimental: as §2

mouse plasma = settings: C57BL/6 male and female mice, 37° C., up to 24 h

CC(C)C[C@H](NP(=O)(O)O[C@@H]1O[C@@H](C)[C@H](O)[C@@H](O)[C@H]1O)C(=O)N[C@@H](Cc1c[nH]c2ccccc12)C(=O)O [PA, phosphoramidon]
Aβ38, Aβ40, and Aβ42 levels (metalloproteases [1]): not significantly changed
increase of Aβ34 (metalloproteases [1]): about 2.5 fold
increase of Aβ34 (metalloproteases [2]): approximately 9 fold
increase of Aβ38, Aβ40, and Aβ42 (metalloproteases [2]): 2-3 fold

C[C@H](O)[C@@H](NC(=O)[C@@H](Cc1ccccc1)NC(=O)[C@@H](CCCCN)NC(=O)[C@@H](CCCNC(=N)N)NC(=O)[C@@H](Cc1ccccc1)NC(=O)[C@H](N)CCC(=O)O)C(=O)NCC(=O)NCC(=O)O [sD-AIP, reference compound] (H-[dE][dF][dR][dK][dF][dT]GG-OH; N-terminus and C-terminus assumed)
signal intensity compared to the unincubated sample [3]: four-fold reduced intensity
metabolised at 24 h, 1 ug/mL [4]: ~50%

D-amino acids of RGTFEGKF (H-[dR]G[dT][dF][dE]G[dK][dF]-OH; N-terminus and C-terminus assumed; SMILES C[C@H](O)[C@@H](NC(=O)CNC(=O)[C@H](N)CCCNC(=N)N)C(=O)N[C@H](Cc1ccccc1)C(=O)N[C@H](CCC(=O)O)C(=O)NCC(=O)N[C@H](CCCCN)C(=O)N[C@H](Cc1ccccc1)C(=O)O)
not cleaved (mouse plasma): relatively stable over 24 h in mouse plasma
